Results taken from ChEMBL document CHEMBL1201862, “PubChem BioAssay data set” (2004).
Calls of active or inactive are those of the source.

Experiments:
[1] = growth suppression of beta-catenin-knockout colon cells, dose response, cell-based, HCT116, human colon tumor (AID 1045); format: functional;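 also: HCT116 colon tumor cells with beta catenin knocked out; cells exposed to compound for 60 hours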
[2] = target: Peroxisome proliferator-activated receptor gamma/Nuclear receptor coactivator 1 (Homo sapiens, UniProt P37231); format: functional;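 also: agonist potency as compounds enhance coactivator SRC-1 recruitment to PPARgamma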
[3] = target: T1, Beta-2 adrenergic receptor (Homo sapiens, UniProt P07550); assay: Dose response for HTS for Beta-2AR agonists via FAP method from Powderset3.; format: functional
T1 sequence (P07550 whole entry): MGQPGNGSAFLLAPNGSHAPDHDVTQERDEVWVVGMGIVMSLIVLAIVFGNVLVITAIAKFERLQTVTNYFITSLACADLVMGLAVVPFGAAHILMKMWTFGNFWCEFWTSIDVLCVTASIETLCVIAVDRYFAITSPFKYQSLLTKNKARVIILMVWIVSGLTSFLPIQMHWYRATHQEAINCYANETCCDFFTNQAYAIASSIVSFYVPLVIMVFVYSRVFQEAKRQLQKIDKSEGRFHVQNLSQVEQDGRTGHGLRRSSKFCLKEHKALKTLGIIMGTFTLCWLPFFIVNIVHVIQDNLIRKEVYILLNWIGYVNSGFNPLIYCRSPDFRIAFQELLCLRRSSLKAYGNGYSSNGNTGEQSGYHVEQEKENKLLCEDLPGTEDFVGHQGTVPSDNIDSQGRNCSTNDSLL

[4] = target: Peroxisome proliferator-activated receptor gamma/Nuclear receptor coactivator 3 (Homo sapiens, UniProt P37231); format: functional;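 also: agonist potency for raising coactivator recruitment to the receptor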
[5] = target: Peroxisome proliferator-activated receptor gamma/Nuclear receptor coactivator 2 (Homo sapiens, UniProt P37231); format: functional;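 also: agonist potency for raising coactivator recruitment to the receptor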
[6] = growth suppression of PTEN-null colon cells, dose response, cell-based, HCT116 PTEN knockout (AID 1047); format: functional;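 also: HCT116 colon tumor cells with PTEN knocked out; cells exposed to compound for 60 hours before readout; potency for loss of cell viability measured by luminescence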
[7] = target: T1, Beta-2 adrenergic receptor; assay: beta2AR agonists driving receptor internalization, dose response, cell-based, FAP fluorogen, flow cytometry, cherry pick 1 (AID 588763); format: functional
[8] = target: Protein-tyrosine kinase 2-beta (Homo sapiens, UniProt Q14289);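 also: potency of inhibitors of PYK2 kinase phosphorylation of poly-GT substrate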
Protein-tyrosine kinase 2-beta, sequence (Q14289 whole entry): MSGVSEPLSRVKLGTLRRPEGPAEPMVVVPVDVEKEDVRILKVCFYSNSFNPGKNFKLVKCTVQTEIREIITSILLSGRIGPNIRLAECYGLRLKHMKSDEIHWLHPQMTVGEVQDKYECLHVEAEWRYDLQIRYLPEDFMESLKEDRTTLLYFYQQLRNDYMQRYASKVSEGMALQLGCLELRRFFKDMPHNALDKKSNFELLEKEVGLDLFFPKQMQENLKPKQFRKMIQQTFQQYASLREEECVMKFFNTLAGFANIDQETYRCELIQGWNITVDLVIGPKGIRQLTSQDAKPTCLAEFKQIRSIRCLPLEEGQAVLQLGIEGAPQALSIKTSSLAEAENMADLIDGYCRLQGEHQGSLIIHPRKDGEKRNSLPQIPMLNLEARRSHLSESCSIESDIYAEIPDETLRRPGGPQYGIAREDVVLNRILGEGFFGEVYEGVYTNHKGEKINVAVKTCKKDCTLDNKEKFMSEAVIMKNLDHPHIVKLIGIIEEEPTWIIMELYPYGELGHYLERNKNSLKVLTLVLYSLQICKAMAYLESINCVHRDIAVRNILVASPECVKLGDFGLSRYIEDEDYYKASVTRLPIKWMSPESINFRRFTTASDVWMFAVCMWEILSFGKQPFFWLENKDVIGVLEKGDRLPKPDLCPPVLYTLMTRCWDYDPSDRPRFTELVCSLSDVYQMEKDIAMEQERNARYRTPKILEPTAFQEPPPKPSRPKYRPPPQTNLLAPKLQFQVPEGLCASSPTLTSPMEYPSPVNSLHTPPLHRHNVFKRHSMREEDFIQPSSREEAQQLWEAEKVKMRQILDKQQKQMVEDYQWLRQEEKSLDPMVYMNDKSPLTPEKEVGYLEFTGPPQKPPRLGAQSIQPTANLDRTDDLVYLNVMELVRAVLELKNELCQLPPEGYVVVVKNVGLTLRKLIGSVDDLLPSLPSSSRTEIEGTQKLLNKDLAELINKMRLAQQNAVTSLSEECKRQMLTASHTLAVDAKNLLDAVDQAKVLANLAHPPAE

[9] = target: Tyrosine-protein phosphatase non-receptor type 5 (Homo sapiens, UniProt P54829); assay: STEP phosphatase inhibitors, confirmation, biochemical, fluorescence intensity, uHTS hits (AID 602372); format: functional; conditions: read-out: IC50_Mean
Tyrosine-protein phosphatase non-receptor type 5, sequence (P54829 whole entry): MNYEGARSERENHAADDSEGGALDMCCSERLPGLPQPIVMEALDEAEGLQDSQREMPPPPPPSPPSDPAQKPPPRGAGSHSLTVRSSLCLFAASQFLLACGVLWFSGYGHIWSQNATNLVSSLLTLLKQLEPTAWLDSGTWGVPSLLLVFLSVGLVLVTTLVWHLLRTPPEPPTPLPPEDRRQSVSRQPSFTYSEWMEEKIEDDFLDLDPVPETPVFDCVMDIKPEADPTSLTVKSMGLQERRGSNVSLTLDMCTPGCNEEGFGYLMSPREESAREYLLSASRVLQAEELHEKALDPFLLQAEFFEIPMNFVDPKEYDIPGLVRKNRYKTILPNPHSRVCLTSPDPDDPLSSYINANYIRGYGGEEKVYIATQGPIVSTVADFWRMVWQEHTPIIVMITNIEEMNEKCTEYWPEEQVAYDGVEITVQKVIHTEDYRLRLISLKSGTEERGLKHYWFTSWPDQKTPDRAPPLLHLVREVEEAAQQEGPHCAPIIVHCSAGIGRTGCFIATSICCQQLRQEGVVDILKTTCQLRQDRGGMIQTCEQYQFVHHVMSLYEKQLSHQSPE

[10] = target: Tyrosine-protein phosphatase non-receptor type 11 (Homo sapiens, UniProt Q06124); assay: SHP2 phosphatase inhibition, dose response, selectivity assay for STEP inhibitor project, biochemical (AID 602367); format: functional; conditions: read-out: IC50_Mean
[11] = target: T1, Beta-2 adrenergic receptor; assay: Dose response for HTS for Beta-2AR agonists via FAP method from Powderset1.; format: functional
Cytochrome P450 2C9 = Cytochrome P450 2C9 (Homo sapiens, UniProt P11712)
Cytochrome P450 2C9, sequence (P11712 whole entry): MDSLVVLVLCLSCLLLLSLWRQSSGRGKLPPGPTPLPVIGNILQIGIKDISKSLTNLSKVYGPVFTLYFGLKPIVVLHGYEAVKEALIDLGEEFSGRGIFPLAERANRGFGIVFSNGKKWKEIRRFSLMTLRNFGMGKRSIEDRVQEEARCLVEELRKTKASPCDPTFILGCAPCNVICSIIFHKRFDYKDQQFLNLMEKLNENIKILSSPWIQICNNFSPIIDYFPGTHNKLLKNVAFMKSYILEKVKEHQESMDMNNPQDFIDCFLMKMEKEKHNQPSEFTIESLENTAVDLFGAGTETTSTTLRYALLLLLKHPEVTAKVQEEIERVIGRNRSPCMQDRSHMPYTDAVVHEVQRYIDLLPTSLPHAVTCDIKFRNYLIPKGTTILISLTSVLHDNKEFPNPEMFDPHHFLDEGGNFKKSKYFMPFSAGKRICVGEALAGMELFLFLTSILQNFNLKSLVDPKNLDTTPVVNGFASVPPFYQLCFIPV

[12] = target: T2, Tyrosine-protein phosphatase non-receptor type 7 (Homo sapiens, UniProt P35236); assay: inhibitors of human HePTP phosphatase, […], biochemical, absorbance, leukemia target (AID 521); format: functional
T2 sequence (P35236 whole entry): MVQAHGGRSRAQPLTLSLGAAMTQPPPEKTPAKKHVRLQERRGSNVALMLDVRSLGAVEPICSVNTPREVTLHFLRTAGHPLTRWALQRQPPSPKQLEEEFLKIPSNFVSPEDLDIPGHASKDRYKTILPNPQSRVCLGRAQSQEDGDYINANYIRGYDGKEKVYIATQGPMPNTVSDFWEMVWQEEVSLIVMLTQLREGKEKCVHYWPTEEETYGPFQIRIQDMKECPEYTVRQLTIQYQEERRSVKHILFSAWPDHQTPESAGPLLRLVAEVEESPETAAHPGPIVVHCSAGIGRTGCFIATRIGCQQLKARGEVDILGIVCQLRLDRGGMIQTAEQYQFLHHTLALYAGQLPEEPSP

[13] = target: Dual specificity protein phosphatase 3 (Homo sapiens, UniProt P51452); assay: VHR phosphatase inhibition, dose response, selectivity assay for STEP inhibitor project, biochemical (AID 602374); format: functional; conditions: read-out: IC50_Mean
Dual specificity protein phosphatase 3, sequence (P51452 whole entry): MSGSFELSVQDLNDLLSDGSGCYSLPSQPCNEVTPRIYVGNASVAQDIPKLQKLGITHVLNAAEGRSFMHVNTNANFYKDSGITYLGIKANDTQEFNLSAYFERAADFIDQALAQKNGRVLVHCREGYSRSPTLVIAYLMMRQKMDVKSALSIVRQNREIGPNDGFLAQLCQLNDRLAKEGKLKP

A549 = assay: A549 cell toxicity, dose response, cytotoxicity control, plate reader, cherry-pick samples (AID 687028); format: functional, cell-based; conditions: Homo sapiens
[14] = target: Nuclear receptor subfamily 5 group A member 2 (Homo sapiens, UniProt O00482); format: functional, cell-based;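 also: HEK293T cells transfected with LRH-1 and a StAR promoter luciferase reporter; potency for inhibitors that lower LRH-1 driven reporter light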
Nuclear receptor subfamily 5 group A member 2, sequence (O00482 whole entry): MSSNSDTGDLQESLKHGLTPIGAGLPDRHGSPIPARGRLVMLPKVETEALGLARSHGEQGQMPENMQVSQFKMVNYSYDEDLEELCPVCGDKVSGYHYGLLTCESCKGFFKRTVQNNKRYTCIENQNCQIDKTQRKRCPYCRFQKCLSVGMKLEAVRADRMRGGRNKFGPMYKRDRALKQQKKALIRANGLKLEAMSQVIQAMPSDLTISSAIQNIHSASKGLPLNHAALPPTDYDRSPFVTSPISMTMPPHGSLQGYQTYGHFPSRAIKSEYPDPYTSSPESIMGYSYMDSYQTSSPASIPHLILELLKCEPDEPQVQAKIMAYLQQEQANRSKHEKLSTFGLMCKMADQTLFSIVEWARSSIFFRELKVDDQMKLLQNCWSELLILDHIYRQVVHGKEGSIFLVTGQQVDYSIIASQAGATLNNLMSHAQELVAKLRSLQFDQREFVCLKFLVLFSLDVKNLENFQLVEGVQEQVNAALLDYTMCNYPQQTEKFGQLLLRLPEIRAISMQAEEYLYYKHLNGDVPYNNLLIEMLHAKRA

Steroidogenic factor 1 = Steroidogenic factor 1 (Homo sapiens, UniProt Q13285); assay: Counterscreen for inverse agonists of the liver receptor homolog-1 (LRH-1; NR5A2): Luminescence-based cell-based high throughput dose response assay to identify inverse agonists of the Steroidogenic Factor 1 Nuclear Receptor (SF1; NR5A1).; format: functional
Steroidogenic factor 1, sequence (Q13285 whole entry): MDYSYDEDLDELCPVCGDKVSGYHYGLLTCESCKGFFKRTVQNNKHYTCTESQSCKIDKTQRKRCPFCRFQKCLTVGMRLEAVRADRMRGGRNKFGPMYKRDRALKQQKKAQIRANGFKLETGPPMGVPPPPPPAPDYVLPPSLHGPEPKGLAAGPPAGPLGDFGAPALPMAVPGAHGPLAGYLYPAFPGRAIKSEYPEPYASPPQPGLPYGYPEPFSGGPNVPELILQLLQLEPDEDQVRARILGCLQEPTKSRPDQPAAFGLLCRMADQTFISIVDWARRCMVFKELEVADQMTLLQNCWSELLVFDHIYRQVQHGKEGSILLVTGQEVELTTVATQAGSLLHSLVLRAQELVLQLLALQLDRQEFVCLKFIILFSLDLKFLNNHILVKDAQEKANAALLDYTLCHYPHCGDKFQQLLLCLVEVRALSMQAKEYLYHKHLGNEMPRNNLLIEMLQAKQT

[15] = StAR promoter reporter inhibition counter-screen, dose response, counter-screen for LRH-1 inverse agonist project, cell-based, luminescence, luciferase reporter (AID 651969); format: functional
[16] = target: T3, Sentrin-specific protease 1 (Homo sapiens, UniProt Q9P0U3); assay: potency of human SENP1 inhibitors, dose response, biochemical, kinetic FRET (AID 651697); format: functional; conditions: read-out: IC50_Mean
T3 sequence (Q9P0U3 whole entry, the tested form may be a part): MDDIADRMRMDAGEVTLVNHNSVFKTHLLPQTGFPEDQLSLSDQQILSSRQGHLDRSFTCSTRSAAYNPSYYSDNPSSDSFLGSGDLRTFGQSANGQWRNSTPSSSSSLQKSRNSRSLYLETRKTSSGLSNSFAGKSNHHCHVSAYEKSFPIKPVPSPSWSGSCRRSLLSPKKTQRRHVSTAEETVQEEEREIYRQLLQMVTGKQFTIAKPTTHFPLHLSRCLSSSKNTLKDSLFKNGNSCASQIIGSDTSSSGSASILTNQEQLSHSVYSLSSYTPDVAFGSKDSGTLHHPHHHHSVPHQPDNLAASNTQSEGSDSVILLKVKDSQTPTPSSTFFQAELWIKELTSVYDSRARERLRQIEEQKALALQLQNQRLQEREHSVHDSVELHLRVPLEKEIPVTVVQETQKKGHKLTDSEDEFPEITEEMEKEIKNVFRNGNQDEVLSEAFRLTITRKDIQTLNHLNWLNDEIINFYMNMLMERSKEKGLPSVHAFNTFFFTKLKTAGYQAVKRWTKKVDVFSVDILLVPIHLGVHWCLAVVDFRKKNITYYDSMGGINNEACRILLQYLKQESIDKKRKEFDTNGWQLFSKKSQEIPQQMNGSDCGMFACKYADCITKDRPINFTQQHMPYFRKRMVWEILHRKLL

[17] = target: T3, Sentrin-specific protease 1; assay: Dose response confirmation of small molecule inhibitors of the catalytic domain of the SUMO protease, SENP1 in a FRET assay.; format: functional; conditions: read-out: IC50_Mean
[18] = target: ADP-ribosylation factor GTPase-activating protein 1 (Rattus norvegicus, UniProt Q62848); assay: Fluorescence polarization-based biochemical high throughput dose response screening assay to identify inhibitors of ADP-ribosylation factor GTPase activating protein 1 (ARFGAP1).; format: functional
ADP-ribosylation factor GTPase-activating protein 1, sequence (Q62848 whole entry): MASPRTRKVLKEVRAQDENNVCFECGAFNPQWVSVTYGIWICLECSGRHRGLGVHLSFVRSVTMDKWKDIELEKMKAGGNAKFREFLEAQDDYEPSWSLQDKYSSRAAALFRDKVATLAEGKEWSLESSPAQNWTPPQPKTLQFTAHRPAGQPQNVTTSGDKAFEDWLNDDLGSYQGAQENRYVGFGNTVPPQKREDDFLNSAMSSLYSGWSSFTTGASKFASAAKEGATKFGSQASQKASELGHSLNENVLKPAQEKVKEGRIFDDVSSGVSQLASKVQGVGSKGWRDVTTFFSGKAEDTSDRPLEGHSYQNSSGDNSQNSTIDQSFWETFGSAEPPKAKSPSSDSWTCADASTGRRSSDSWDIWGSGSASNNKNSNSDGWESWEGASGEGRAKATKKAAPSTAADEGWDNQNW

Structure (SMILES): CC(C)Cc1nc2sc3c(NCc4ccco4)ncnc3c2c2c1COC(C)(C)C2
- EC50 [1]: 14 µM (active)
- EC50 [2]: > 79.4 µM (not active)
- EC50 [3]: 0.0238 µM (active)
- EC50 [4]: > 79.4 µM (not active)
- EC50 [5]: > 79.4 µM (not active)
- EC50 [6]: 14.3 µM (active)
- EC50 [7]: 0.615 µM (active)

Structure (SMILES): CCc1ccc(OCC(=O)Nc2ccc(-c3nc4ccccc4o3)c(O)c2)cc1
- IC50 [8]: > 69.5 µM (not active)
- IC50 [9]: 3.98 µM (active)
- IC50 [10]: 0.368 µM (active)
- EC50 [11]: 0.261 µM (active)
- AC50 (Cytochrome P450 2C9): inconclusive
- IC50 [12]: 5.28 µM (active)
- EC50 [7]: 0.476 µM (active)
- IC50 [13]: 0.767 µM (active)

Structure (SMILES): COc1ccc2c3c([nH]c2c1)[C@H](CO)N(C(=O)c1ccccc1)CC31CN(S(=O)(=O)c2cccs2)C1
- AC50 (A549): 26 µM (active)

Structure (SMILES): COc1ccc(-n2c(N)c(C(=O)NCc3cccnc3)sc2=S)cc1
- IC50 [14]: 35.9 µM (inactive)
- IC50 (Steroidogenic factor 1): 5.22 µM (active)
- IC50 [15]: 35.9 µM (inactive)

Structure (SMILES): O=C(NC[C@@H]1CCCO1)c1cccc2c1C(=O)c1ccc(N3CCOCC3)cc1S2(=O)=O
- IC50 [16]: 12 µM (active)
- IC50 [17]: 16.4 µM (active)

Structure (SMILES): COc1ccc(NC(=O)Cn2nnc(C(=O)Nc3ccc(F)c(Cl)c3)c2N)cc1
- IC50 [18]: 53.1 µM (inactive)
